Measured values: patent US20110294853A1, “Bis Aromatic Compounds for Use in the Treatment of Inflammation” (priority 2008, published 2011)

These compounds were tested against T1, Recombinant human LTC4 synthase (Homo sapiens, UniProt Q16873) (assay: In vitro assay of LTC4 synthase inhibition (HPLC or HTRF detection of LTC4)). Conditions: inhibitor concentration 10 μM; percentage inhibitions of LTC4.
T1 construct: made in house; host or cells: Pichia pastoris ('Piccia pastoralis' [sic])
T1 sequence (Q16873 1-150): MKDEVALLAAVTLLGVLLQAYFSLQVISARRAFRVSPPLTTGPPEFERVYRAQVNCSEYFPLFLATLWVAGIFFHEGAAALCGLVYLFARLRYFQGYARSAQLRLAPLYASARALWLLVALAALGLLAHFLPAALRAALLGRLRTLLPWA
Format: biochemical
Procedure: In the assay LTC4 synthase catalyses the reaction where the substrate LTA4 methyl ester is converted to the corresponding LTC4 methyl ester. Recombinant human LTC4 synthase is expressed in Piccia pastoralis and the purified enzyme is dissolved in 25 mM Tris-buffer pH 7.8 and stored at −20° C. The assay is performed in phosphate buffered saline (PBS) pH 7.4, supplemented with 5 mM glutathione (GSH). The reaction is terminated by addition of acetonitrile/MeOH/acetic acid (50/50/1). The assay is performed at rt in 96-well plates. Analysis of the formed LTC4 methyl ester is performed with reversed phase HPLC (Waters 2795 utilizing an Onyx Monolithic C18 column). The mobile phase consists of acetonitrile/MeOH/H2O (32.5/30/37.5) with 1% acetic acid pH adjusted with NH3 to pH 5.6, and absorbance measured at 280 nm with a Waters 2487 UV-detector.
The following is added chronologically to each well: • 1. 50 μL assay buffer, PBS with 5 mM GSH. • 2. 0.5 μL inhibitor in DMSO. • 3. 2 μL LTC4 synthase in PBS. The total protein concentration in this solution is 0.025 mg/mL. Incubation of the plate at room temperature for 10 minutes. • 4. 0.5 μL LTA4 methyl ester. Incubation of the plate at rt for 1 min. • 5. 50 μL stop solution. • 80 μL of the incubation mixture is analysed with HPLC.
Alternatively HTRF detection of LTC4 can be used:
In the assay, LTC4 synthase catalyses the reaction where the substrate LTA4 is converted to LTC4. Recombinant human LTC4 synthase is expressed in Piccia pastoralis and the purified enzyme is dissolved in 25 mM Tris-buffer pH 7.8 supplemented with 0.1 mM glutathione (GSH) and stored at −80° C. The assay is performed in phosphate buffered saline (PBS) pH 7.4 and 5 mM GSH in 384-well plates.
The following is added chronologically to each well:
1. 48 μL LTC4 synthase in PBS with 5 mM GSH. The total protein concentration in this solution is 0.5 μg/mL. 2. 1 μL inhibitor in DMSO (final concentration 10 μM). 3. Incubation of the plate at rt for 10 min. 4. 1 μL LTA4 (final concentration 2.5 μM). 5. Incubation of the plate at rt for 5 min. 6. 10 μl of the incubation mixture is analysed using HTRF detection.

Row | inhibition at 10 µM | Compound
1 | 100% | CCCCc1ccc(S(=O)(=O)Nc2ccc(NS(=O)(=O)c3ccc(Oc4ccccc4OC)cc3)cc2C(=O)O)cc1 [5:4, 2-(4-Butylphenylsulfonamido)-5-(4-(2-methoxy-phenoxy)phenylsulfonamido)benzoic acid]
2 | 99% | O=C(Nc1cccc(Cl)c1)Nc1ccc(-c2ccc(NC(=O)Nc3cccc(Cl)c3)c(C(=O)O)c2)cc1C(=O)O [Example 1:4, 4,4′-bis(3-(3-chlorophenyl)ureido)biphenyl-3,3′-dicarboxylic acid]
3 | 98% | O=C(O)c1cc(-c2ccc(NC(=O)c3cccc4ccccc34)c(C(=O)O)c2)ccc1NC(=O)c1cccc2ccccc12 [Example 1:10, 4,4′-bis(1-naphthamido)biphenyl-3,3′-dicarboxylic acid]
4 | 87% | COc1ccc(C(=O)Nc2ccc(CCc3ccc(NC(=O)c4cccc(C(F)(F)F)c4)c(C(=O)O)c3)cc2C(=O)O)cc1 [2:1, 5-{2-[3-Carboxy-4-(4-methoxybenzoylamino)phenyl]ethyl}-2-(3-trifluoromethylbenzoylamino)benzoic acid]
5 | 79% | CCCCc1ccc(C(=O)Nc2ccc(NC(=O)c3ccc(NC(=O)c4ccc(OC(C)C)cc4)cc3)cc2C(=O)O)cc1 [4:1, 2-(4-Butylbenzoylamino)-5-[4-(4-isopropoxy-benzoylamino)benzoyl-amino]-benzoic acid]
6 | 100% | O=C(Cc1ccc(Cl)cc1)Nc1ccc(-c2ccc(NC(=O)Cc3ccc(Cl)cc3)c(C(=O)O)c2)cc1C(=O)O [Example 1:7, 4,4′-bis(2-(4-chlorophenyl)acetamido)biphenyl-3,3′-dicarboxylic acid]
7 | 100% | CCCCc1ccc(C(=O)Nc2ccc(NC(=O)c3ccc(NS(=O)(=O)c4cccc(Cl)c4C)cc3)cc2C(=O)O)cc1 [4:3, 2-(4-Butylbenzoylamino)-5-[4-(3-chloro-2-methylbenzenesulfonylamino)-benzoylamino]-benzoic acid]
8 | 100% | O=C(Nc1ccc(COc2ccc(NC(=O)c3cccc(Cl)c3)c(C(=O)O)c2)cc1C(=O)O)c1cccc(Cl)c1 [3:2, 2-(3-Chlorobenzoylamino)-5-[3-carboxy-4-(3-chlorobenzoylamino)-benzyloxy]-benzoic acid]
9 | 92% | O=C(O)c1cc(-c2ccc(NS(=O)(=O)c3ccccc3)c(C(=O)O)c2)ccc1NS(=O)(=O)c1ccccc1 [Example 1:2, 4,4′-bis(phenylsulfonamido)biphenyl-3,3′-dicarboxylic acid]
10 | 98% | O=C(Nc1ccc(CCc2ccc(NC(=O)c3cccc(C(F)(F)F)c3)c(C(=O)O)c2)cc1C(=O)O)c1ccc(C(F)(F)F)cc1 [2:4, 5-{2-[3-Carboxy-4-(4-trifluoromethyl-benzoylamino)-phenyl]ethyl}-2-(3-trifluoromethylbenzoylamino)benzoic acid]
11 | 88% | O=C(Nc1ccc(-c2ccc(NC(=O)c3cccc(Cl)c3)c(C(=O)O)c2)cc1C(=O)O)c1cccc(Cl)c1 [Example 1:3, 4,4′-bis(3-chlorobenzamido)biphenyl-3,3′-dicarboxylic acid]
12 | 100% | CCCCc1ccc(C(=O)Nc2ccc(OCc3ccc(NC(=O)c4cccc(Cl)c4)c(C(=O)O)c3)cc2C(=O)O)cc1 [3:1, 2-(4-Butylbenzoylamino)-5-[3-carboxy-4-(3-chlorobenzoylamino)benzyloxy]-benzoic acid]
13 | 100% | CC(C)(C)c1ccc(C(=O)Nc2ccc(CCc3ccc(NC(=O)c4cccc(C(F)(F)F)c4)c(C(=O)O)c3)cc2C(=O)O)cc1 [2:2, 5-{2-[3-Carboxy-4-(4-tert-butylbenzoylamino)-phenyl]ethyl}-2-(3-trifluoromethylbenzoylamino)benzoic acid]
14 | 100% | Nc1ccccc1C(=O)Nc1ccc(-c2ccc(NC(=O)c3ccccc3N)c(C(=O)O)c2)cc1C(=O)O [Example 1:8, 4,4′-bis(2-aminobenzamido)biphenyl-3,3′-dicarboxylic acid]
15 | 100% | CC(C)(C)c1ccc(C(=O)Nc2ccc(-c3ccc(NC(=O)c4ccc(C(C)(C)C)cc4)c(C(=O)O)c3)cc2C(=O)O)cc1 [Example 1:6, 4,4′-bis(4-tert-butylbenzamido)biphenyl-3,3′-dicarboxylic acid]
16 | 100% | O=C(O)c1cc(NS(=O)(=O)c2ccc(Oc3ccccc3)cc2)ccc1NS(=O)(=O)c1ccc(OC(F)(F)F)cc1 [5:1, 5-(4-Phenoxyphenylsulfonamido)-2-(4-(trifluoromethoxy)phenylsulfonamido)benzoic acid]
17 | 98% | CCCCc1ccc(S(=O)(=O)Nc2ccc(NS(=O)(=O)c3ccc(Oc4ccccc4Cl)cc3)cc2C(=O)O)cc1 [5:3, 2-(4-Butylphenylsulfonamido)-5-(4-(2-chloro-phenoxy)-phenylsulfonamido)benzoic acid]
18 | 89% | Cc1ccc(S(=O)(=O)Nc2ccc(-c3ccc(NS(=O)(=O)c4ccc(C)cc4)c(C(=O)O)c3)cc2C(=O)O)cc1 [Example 1:9, 4,4′-bis(4-methylphenylsulfonamido)biphenyl-3,3′-dicarboxylic acid]
19 | 95% | O=C(Nc1ccc(-c2ccc(NC(=O)c3ccccc3)c(C(=O)O)c2)cc1C(=O)O)c1ccccc1 [Example 1:11, 4,4′-bis(benzamido)biphenyl-3,3′-dicarboxylic acid]
20 | 96% | CCCCc1ccc(C(=O)Nc2ccc(NC(=O)c3ccc(NC(=O)c4ccccc4)cc3)cc2C(=O)O)cc1 [4:2, 5-(4-Benzoylaminobenzoylamino)-2-(4-butylbenzoylamino)benzoic acid]
21 | 69% | O=C(O)c1cc(-c2ccc(NS(=O)(=O)c3cccnc3)c(C(=O)O)c2)ccc1NS(=O)(=O)c1cccnc1 [Example 1:5, 4,4′-bis(pyridine-3-sulfonamido)biphenyl-3,3′-dicarboxylic acid]
22 | 89% | O=C(Nc1ccc(C#Cc2ccc(NC(=O)c3ccc(C(F)(F)F)cc3)c(C(=O)O)c2)cc1)c1cccc(C(F)(F)F)c1 [2:5, 2-(4-Trifluoromethylbenzoylamino)-5-[4-(3-trifluoromethylbenzoylamino)-phenylethynyl]-benzoic acid]
23 | 85% | O=C(Nc1ccc(CCc2ccc(NC(=O)c3ccc(C(F)(F)F)cc3)c(C(=O)O)c2)cc1)c1cccc(C(F)(F)F)c1 [2:3, 2-(4-Trifluoromethylbenzoylamino)-5-{2-[4-(3-trifluoromethylbenzoylamino)-phenyl]-ethyl}benzoic acid]
24 | 100% | CCCCc1ccc(S(=O)(=O)Nc2ccc(NS(=O)(=O)c3ccc(Oc4ccccc4)cc3)cc2C(=O)O)cc1 [Example 5:2, 2-(4-Butylphenylsulfonamido)-5-(4-phenoxyphenylsulfonamido)-benzoic acid]

Row | Compound | inhibition at 10 µM
25 | CC(=O)Oc1ccc(C(=O)Nc2ccc(-c3ccc(NC(=O)c4ccc(OC(C)=O)cc4)c(C(=O)O)c3)cc2C(=O)O)cc1 [Example 1:12, 4,4′-bis(4-acetoxybenzamido)biphenyl-3,3′-dicarboxylic acid] | 97%
26 | CCCCOc1ccc(S(=O)(=O)Nc2ccc(NCc3cccc(OCc4ccccc4Cl)c3)cc2C(=O)O)cc1 [6:2, 2-(4-Butoxyphenylsulfonamido)-5-(3-(2-chlorobenzyloxy)benzylamino)benzoic acid] | 100%
27 | CCCCOc1ccc(S(=O)(=O)Nc2ccc(NS(=O)(=O)c3ccc(Oc4ccccc4Cl)cc3)cc2C(=O)O)cc1 [5:5, 2-(4-Butoxyphenylsulfonamido)-5-(4-(2-chloro-phenoxy)-phenylsulfonamido)benzoic acid] | 99%
28 | CCCCOc1ccc(S(=O)(=O)Nc2ccc(NCc3cccc(Oc4ccc(C(C)(C)C)cc4)c3)cc2C(=O)O)cc1 [6:1, 2-(4-Butoxyphenylsulfonamido)-5-(3-(4-tert-butylphenoxy)benzylamino)benzoic acid] | 100%
